Read-outs that look alike come from different tables or passages of the source.
Tests used:
[1] = test system: AMO-1 human multiple myeloma tumor cell line; assay: AMO-1 cell viability assay (CellTiter-Glo); assay type: cell-based; conditions: AMO1, read-out: AMO-1 Viability IC50 (μM), 10% FBS, 24 hours of compound treatment
[2] = test system: NCI-H929 human multiple myeloma tumor cell line; assay: NCI-H929 cell viability assay (CellTiter-Glo); assay type: cell-based; conditions: NCI-H929, read-out: H929 Viability IC50 (μM), 10% FBS, 24 hours of compound treatment
[3] = target: GST-MCL-1 (Homo sapiens (Human), UniProt Q07820); assay: TR-FRET MCL-1 binding assay (competition with probe F-Bak)
Sequence of GST-MCL-1 (Q07820 whole entry): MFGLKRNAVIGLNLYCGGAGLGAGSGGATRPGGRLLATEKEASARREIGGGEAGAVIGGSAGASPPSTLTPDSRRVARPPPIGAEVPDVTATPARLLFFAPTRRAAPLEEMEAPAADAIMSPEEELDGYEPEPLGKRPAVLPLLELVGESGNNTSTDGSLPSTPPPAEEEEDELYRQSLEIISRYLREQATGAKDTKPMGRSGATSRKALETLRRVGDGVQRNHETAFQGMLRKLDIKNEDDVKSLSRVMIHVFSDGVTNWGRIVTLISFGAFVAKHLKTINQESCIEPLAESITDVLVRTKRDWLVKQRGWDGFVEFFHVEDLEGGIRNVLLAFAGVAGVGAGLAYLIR
Protocol: For the assay, an acoustic dispenser was used to prepare dilution series from 10 mM test compounds in 100% DMSO and directly transfer 160 nL into low volume 384-well assay plates. 8 μL of a protein/probe/antibody mix was then added to each well resulting in final concentrations listed below: Test compound: 11 three-fold dilutions beginning at 25 μM
The samples were then mixed on a shaker for 1 minute and incubated for an additional 2 hours at room temperature. For each assay plate, a probe/antibody and protein/antibody/probe mixture were included as a negative and a positive control, respectively. Fluorescence was measured on the Envision (Perkin Elmer) using a 340/35 nm excitation filter and 520/525 (F-Bak) and 495/510 nm (Tb-labeled anti-his antibody) emission filters. […] The TR-FRET assay can be performed in the presence of varying concentrations of human serum (HS) or fetal bovine serum (FBS). Compounds were tested both without HS and in the presence of 10% HS.

[4] = read-out: MCL-1 Binding Ki (nM, 10% HS), in the presence of 10% HS
[5] = without HS, read-out: MCL-1 Binding Ki

Compound | IC50 [1] [nM] | IC50 [2] [µM] | Ki [3, 4] [nM] | Ki [3, 5] [nM]
Cc1c(Cl)c2c(Cl)c(C)c1-c1c(-c3ccc(F)cc3)sc3ncnc(c13)O[C@@H](C(=O)O)Cc1cc(ccc1OCc1ccnc([C@H]3CC[C@H](OCC4COCO4)CC3)n1)OC[C@@H](CN1CCN(C)CC1)O2 (stereo partly drawn) [Example 14, (7R,16R)-19,23-dichloro-10-[(2-{(1r,4r)-4-[(1,3-dioxolan-4-yl)methoxy]cyclohexyl}pyrimidin-4-yl)methoxy]-1-(4-fluorophenyl)-20,22-dimethyl-16-[(4-methylpiperazin-1-yl)methyl]-7,8,15,16-tetrahydro-18,21-etheno-13,9-(metheno)-6,14,17-trioxa-2-thia-3,5-diazacyclononadeca[1,2,3-cd]indene-7-carboxylic acid] | 0.114 | 0.000236 | 0.09 | 0.006
Cc1c(Cl)c2c(Cl)c(C)c1-c1c(-c3ccc(F)cc3)sc3ncnc(c13)O[C@@H](C(=O)O)Cc1cc(ccc1OCc1ccnc([C@H]3CC[C@@H](OCC4COCCO4)CC3)n1)OC[C@@H](CN1CCN(C)CC1)O2 (stereo partly drawn) [Example 15, (7R,16R)-19,23-dichloro-10-[(2-{(1s,4s)-4-[(1,4-dioxan-2-yl)methoxy]cyclohexyl}pyrimidin-4-yl)methoxy]-1-(4-fluorophenyl)-20,22-dimethyl-16-[(4-methylpiperazin-1-yl)methyl]-7,8,15,16-tetrahydro-18,21-etheno-13,9-(metheno)-6,14,17-trioxa-2-thia-3,5-diazacyclononadeca[1,2,3-cd]indene-7-carboxylic acid] | 0.156 | 0.000294 | 0.15 | 0.013
Cc1c(Cl)c2c(Cl)c(C)c1-c1c(-c3ccc(F)cc3)sc3ncnc(c13)O[C@@H](C(=O)O)Cc1cc(ccc1OCc1cncc(-c3ccc(OC[C@H]4COCCO4)cc3)n1)OC[C@@H](CN1CCN(C)CC1)O2 [Example 16, (7R,16R)-19,23-dichloro-10-{[6-(4-{[(2R)-1,4-dioxan-2-yl]methoxy}phenyl)pyrazin-2-yl]methoxy}-1-(4-fluorophenyl)-20,22-dimethyl-16-[(4-methylpiperazin-1-yl)methyl]-7,8,15,16-tetrahydro-18,21-etheno-13,9-(metheno)-6,14,17-trioxa-2-thia-3,5-diazacyclononadeca[1,2,3-cd]indene-7-carboxylic acid] | 0.245 | 0.000592 | 0.83 | 0.048
Cc1c(Cl)c2c(Cl)c(C)c1-c1c(C3CCCCC3)sc3ncnc(c13)O[C@@H](C(=O)O)Cc1cc(ccc1OCc1ccnc(-c3ccc(OC[C@@H]4COCCO4)cc3)n1)OC[C@@H](CN1CCN(C)CC1)O2 [Example 17, (7R,16R)-19,23-dichloro-1-cyclohexyl-10-{[2-(4-{[(2S)-1,4-dioxan-2-yl]methoxy}phenyl)pyrimidin-4-yl]methoxy}-20,22-dimethyl-16-[(4-methylpiperazin-1-yl)methyl]-7,8,15,16-tetrahydro-18,21-etheno-9,13-(metheno)-6,14,17-trioxa-2-thia-3,5-diazacyclononadeca[1,2,3-cd]indene-7-carboxylic acid] | 1 | 0.00565 | 4.11 | 0.09
COc1ccccc1-c1nccc(COc2ccc3cc2C[C@H](C(=O)O)Oc2ncnc4sc(C[C@@H]5COCCO5)c(c24)-c2c(C)c(Cl)c(c(Cl)c2C)O[C@H](CN2CCN(C)CC2)CO3)n1 [Example 18, (7R,16R)-19,23-dichloro-1-{[(2R)-1,4-dioxan-2-yl]methyl}-10-{[2-(2-methoxyphenyl)pyrimidin-4-yl]methoxy}-20,22-dimethyl-16-[(4-methylpiperazin-1-yl)methyl]-7,8,15,16-tetrahydro-18,21-etheno-13,9-(metheno)-6,14,17-trioxa-2-thia-3,5-diazacyclononadeca[1,2,3-cd]indene-7-carboxylic acid] | 6.12 | 0.00995 | 0.24 | 0.111
COc1ccccc1-c1nccc(COc2ccc3cc2C[C@H](C(=O)O)Oc2ncnc4sc(C[C@H]5COCCO5)c(c24)-c2c(C)c(Cl)c(c(Cl)c2C)O[C@H](CN2CCN(C)CC2)CO3)n1 [Example 19, (7R,16R)-19,23-dichloro-1-{[(2S)-1,4-dioxan-2-yl]methyl}-10-{[2-(2-methoxyphenyl)pyrimidin-4-yl]methoxy}-20,22-dimethyl-16-[(4-methylpiperazin-1-yl)methyl]-7,8,15,16-tetrahydro-18,21-etheno-13,9-(metheno)-6,14,17-trioxa-2-thia-3,5-diazacyclononadeca[1,2,3-cd]indene-7-carboxylic acid] | 9.74 | 0.0152 | 0.64 | 0.156
Cc1c(Cl)c2c(Cl)c(C)c1-c1c(-c3ccc(F)cc3)sc3ncnc(c13)O[C@@H](C(=O)O)Cc1cc(ccc1OCc1ccnc(N3CCO[C@@H](COCC4COCCO4)C3)n1)OC[C@@H](CN1CCN(C)CC1)O2 (stereo partly drawn) [Example 20, (7R,16R)-19,23-dichloro-10-({2-[(2R)-2-{[(1,4-dioxan-2-yl)methoxy]methyl}morpholin-4-yl]pyrimidin-4-yl}methoxy)-1-(4-fluorophenyl)-20,22-dimethyl-16-[(4-methylpiperazin-1-yl)methyl]-7,8,15,16-tetrahydro-18,21-etheno-13,9-(metheno)-6,14,17-trioxa-2-thia-3,5-diazacyclononadeca[1,2,3-cd]indene-7-carboxylic acid] | 0.286 | 0.000513 | 0.47 | 0.058
Cc1c(Cl)c2c(Cl)c(C)c1-c1c(-c3ccc(F)cc3)sc3ncnc(c13)O[C@@H](C(=O)O)Cc1cc(ccc1OCc1ccnc(-c3cccc(OC[C@H]4COCCO4)c3)n1)OC[C@@H](CN1CCN(C)CC1)O2 [Example 21, (7R,16R)-19,23-dichloro-10-{[2-(3-{[(2R)-1,4-dioxan-2-yl]methoxy}phenyl)pyrimidin-4-yl]methoxy}-1-(4-fluorophenyl)-20,22-dimethyl-16-[(4-methylpiperazin-1-yl)methyl]-7,8,15,16-tetrahydro-18,21-etheno-13,9-(metheno)-6,14,17-trioxa-2-thia-3,5-diazacyclononadeca[1,2,3-cd]indene-7-carboxylic acid] | 0.0488 | 0.000168 | 1.01 | 0.011
Cc1c(Cl)c2c(Cl)c(C)c1-c1c(-c3ccc(F)cc3)sc3ncnc(c13)O[C@@H](C(=O)O)Cc1cc(ccc1OCc1ccnc(-c3cccc(OC[C@@H]4COCCO4)c3)n1)OC[C@@H](CN1CCN(C)CC1)O2 [Example 22, (7R,16R)-19,23-dichloro-10-{[2-(3-{[(2S)-1,4-dioxan-2-yl]methoxy}phenyl)pyrimidin-4-yl]methoxy}-1-(4-fluorophenyl)-20,22-dimethyl-16-[(4-methylpiperazin-1-yl)methyl]-7,8,15,16-tetrahydro-18,21-etheno-13,9-(metheno)-6,14,17-trioxa-2-thia-3,5-diazacyclononadeca[1,2,3-cd]indene-7-carboxylic acid] | 0.142 | 0.000333 | 0.89 | 0.016
Cc1c(Cl)c2c(Cl)c(C)c1-c1c(-c3ccc(F)cc3)sc3ncnc(c13)O[C@@H](C(=O)O)Cc1cc(ccc1OCc1nccc(-c3ccc(OC[C@H]4COCCO4)cc3)n1)OC[C@@H](CN1CCN(C)CC1)O2 [Example 23, (7R,16R)-19,23-dichloro-10-{[4-(4-{[(2R)-1,4-dioxan-2-yl]methoxy}phenyl)pyrimidin-2-yl]methoxy}-1-(4-fluorophenyl)-20,22-dimethyl-16-[(4-methylpiperazin-1-yl)methyl]-7,8,15,16-tetrahydro-18,21-etheno-13,9-(metheno)-6,14,17-trioxa-2-thia-3,5-diazacyclononadeca[1,2,3-cd]indene-7-carboxylic acid] | 3.15 | 0.00849 | 41 | 4.98
Cc1c(Cl)c2c(Cl)c(C)c1-c1c(-c3ccc(F)cc3)sc3ncnc(c13)O[C@@H](C(=O)O)Cc1cc(ccc1OCc1ccnc(OC[C@@H]3COCCO3)n1)OC[C@@H](CN1CCN(C)CC1)O2 [Example 24, (7R,16R)-19,23-dichloro-10-[(2-{[(2S)-1,4-dioxan-2-yl]methoxy}pyrimidin-4-yl)methoxy]-1-(4-fluorophenyl)-20,22-dimethyl-16-[(4-methylpiperazin-1-yl)methyl]-7,8,15,16-tetrahydro-18,21-etheno-9,13-(metheno)-6,14,17-trioxa-2-thia-3,5-diazacyclononadeca[1,2,3-cd]indene-7-carboxylic acid] | 0.687 | 0.00197 | 0.38 | 0.038
Cc1c(Cl)c2c(Cl)c(C)c1-c1c(-c3ccc(F)cc3)sc3ncnc(c13)O[C@@H](C(=O)O)Cc1cc(ccc1OCc1ccnc(OC[C@H]3COCCO3)n1)OC[C@@H](CN1CCN(C)CC1)O2 [Example 25, (7R,16R)-19,23-dichloro-10-[(2-{[(2R)-1,4-dioxan-2-yl]methoxy}pyrimidin-4-yl)methoxy]-1-(4-fluorophenyl)-20,22-dimethyl-16-[(4-methylpiperazin-1-yl)methyl]-7,8,15,16-tetrahydro-18,21-etheno-9,13-(metheno)-6,14,17-trioxa-2-thia-3,5-diazacyclononadeca[1,2,3-cd]indene-7-carboxylic acid] | 0.629 | 0.00188 | 0.19 | 0.003
